Counter-ions that a name gives are not always drawn. One block for each molecule: values may come before it.
Experiments:
[1] = Rat PK, intravenous and oral; type: in vivo, Sprague-Dawley rats; conditions: for AUC: Sprague-Dawley, plasma, 10 mg/kg, rat, PO, analyte = compound administered (sulfate-derived comparator)
Procedure: Intravenous rat pharmacokinetics of exemplar compounds were determined in jugular vein cannulated Sprague-Dawley rats (n=3) (Harlan Laboratories, Indianapolis, Ind.) at a dose of 10 mg/kg. Compounds were dissolved and administered intravenously in 0.9% saline, pH 6.5 at a dose volume of 2 mL/kg. […] Oral pharmacokinetic studies were conducted with exemplar compounds at 10 mg/kg equivalents of carboxylic acids. Doses were dissolved and administered orally in 25:75 PEG400: water for injection, pH 4.5 at a dose volume of 10 mL/kg. […] Plasma samples were stored at −80° C. prior to bioanalysis.
Plasma samples were thawed on ice prior to processing. Samples (30 μL) were diluted and proteins precipitated with 180 μL of acetonitrile containing 0.1% formic acid and 250 ng/mL of carbutamide (N1-(butylcarbanoyl)-sulfanilamide, Sigma-Aldrich Catalog # S385433) as an internal standard. Samples were vortexed for 30 seconds, centrifuged at 3400 g for 10 minutes and the supernatant transferred to injection vials.
LC/MS/MS analysis was completed on an AB Sciex QTrap 6500 mass spectrometer in positive ionization mode, coupled to a Schimadzu Nexera LC system. A Waters Atlantis T3 (3 μm, 3.0×50 mm) column was used for chromatographic separation. Injection volume was […] The mobile phase consisted 0.1% formic acid in water (A) and 0.1% formic acid in acetonitrile (B), with a gradient of 2-98% B:A over two minutes.
Plasma concentration vs. time profiles following intravenous (IV) administration and oral (PO) administration of exemplar compounds were analyzed by non-compartment analysis using WinNonLin 6.4.

[2] = tested on: C. freundii AmpC, TEM-1, CMY65; assay: MIC, CLSI broth microdilution, beta-lactam with or without BLI; type: cell-based; conditions: for MIC: Citrobacter freundii, read-out: MIC of beta-lactam alone; for MIC / MIC of beta-lactam alone: no BLI
Procedure: (§1) The minimal inhibitory concentration (MIC) values against each organism and drug combination were determined using the Clinical and Laboratory Standards Institute guidelines (CLSI) broth microdilution methodology (CLSI M07-A10). The recommended quality control (QC) bacterial strains E. coli ATCC 25922, E. coli ATCC 35218 and Klebsiella pneumoniae ATCC 700603 were incorporated into each test according to the CLSI guidelines to assure that there was no variation between test dates (CLSI M100-S25). The MICs of these QC strains were within QC range on all test occasions. Drug containing plates were made using the master plate method. A cefpodoxime solution was prepared to 20× concentration and 2-fold serial dilutions were made in cation adjusted Mueller-Hinton Broth. Equal volumes of 20× examplar compounds at a fixed concentration were added to the master plate. 10 uL was stamped into daughter plates using a Tecan EVO robot. Organism suspensions were adjusted to a 0.5 McFarland standard and further diluted to yield a final inoculum between 3×10^5 and 7×10^5 colony-forming units (CFU)/mL. Bacterial inocula were made in sterile, cation adjusted Mueller-Hinton Broth (Beckton Dickinson). An inoculum volume of 1.1× concentration of 90 uL was added to wells (using a Tecan EVO robot). All inoculated microdilution plates were incubated in ambient air at 35° C. for 18-24 hours.
(§2) Following the procedure from Example 103, MICs were determined for several beta-lactams in presence of a fixed concentration (4 μg/mL) of exemplar compounds (Table 3) against 3 Enterobacteriaceae strains.

E. coli WT (ATCC 25922) = assay: as above; type: cell-based; conditions: for MIC: Escherichia coli, ATCC25922, no BLI, read-out: MIC of beta-lactam alone; for MIC of beta-lactam alone: no BLI
Procedure: as §1, §2

[3] = tested on: Klebsiella pneumoniae SHV-18, OXA-2, OKP-6 (ATCC 700603); assay: as above; type: cell-based; conditions: for MIC: Klebsiella pneumoniae, ATCC700603, read-out: MIC of beta-lactam alone; for MIC / MIC of beta-lactam alone: no BLI
Procedure: as §1, §2

[4] = target: OXA-48 (Class D beta-lactamase) (Klebsiella pneumoniae, UniProt Q6XEC0); assay: Inhibition of beta-lactamase enzymes (nitrocefin hydrolysis), OXA-48; type: biochemical; conditions: read-out: Class D OXA-48 60 min IC50, nitrocefin 100 μM
OXA-48 (Class D beta-lactamase), sequence (Q6XEC0 whole entry, looked up, species assumed): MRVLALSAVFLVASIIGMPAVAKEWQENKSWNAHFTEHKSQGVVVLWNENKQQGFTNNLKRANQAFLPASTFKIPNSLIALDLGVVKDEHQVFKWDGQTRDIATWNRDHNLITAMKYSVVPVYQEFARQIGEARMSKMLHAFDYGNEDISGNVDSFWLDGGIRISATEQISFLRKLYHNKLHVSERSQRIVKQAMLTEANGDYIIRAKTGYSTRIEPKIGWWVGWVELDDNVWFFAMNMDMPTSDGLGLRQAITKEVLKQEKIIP
In short: (§3)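 Nitrocefin (100 μM) hydrolysis followed at 490 nm for 1 h in 0.1 M sodium phosphate pH 7.0, 10 mM NaHCO3, 0.005% Triton X-100, with 3-fold inhibitor dilutions from 100 μM to 62.7 pM. Progress curves fitted globally to give kinact/Ki or Ki; percent inhibition from best-fit absorbance fitted with Hill equation.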

[5] = target: TEM-1 (Class A beta-lactamase) (Escherichia coli, UniProt P62593); assay: Inhibition of beta-lactamase enzymes (nitrocefin hydrolysis), TEM-1; type: biochemical; conditions: read-out: Class A TEM-1 60 min IC50, nitrocefin 100 μM
TEM-1 (Class A beta-lactamase), sequence (P62593 whole entry, looked up, species assumed): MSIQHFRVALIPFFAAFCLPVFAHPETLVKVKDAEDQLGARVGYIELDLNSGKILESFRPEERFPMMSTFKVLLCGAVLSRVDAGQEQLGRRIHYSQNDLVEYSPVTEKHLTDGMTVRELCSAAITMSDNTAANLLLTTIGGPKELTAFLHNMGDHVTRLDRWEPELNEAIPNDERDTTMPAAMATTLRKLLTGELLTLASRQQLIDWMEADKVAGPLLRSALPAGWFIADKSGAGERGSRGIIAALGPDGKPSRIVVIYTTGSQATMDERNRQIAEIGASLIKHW
In short: as §3

[6] = Stability/conversion of esters in rat intestinal S9; type: in vitro ADME; conditions: intestinal S9, pH 7.4, read-out: T1/2 Rat Intestinal S9
In short: (§4)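 Esters at 10 μM incubated at 37 °C with 0.8 mg/mL S9 (human intestinal without PMSF, rat liver or rat intestinal) or no enzyme, in 100 mM HEPES pH 7.4; sampled 0–60 min. LC-MS/MS tracked ester and hydrolysed active; first-order T1/2 from ester disappearance.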

[7] = Stability/conversion of esters in human liver S9; type: in vitro ADME; conditions: liver S9, pH 7.4, read-out: T1/2 Human Liver S9
In short: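 Ester test compounds (10 μM) were incubated at 37° C with human liver S9 at 0.8 mg/mL in 100 mM HEPES buffer, pH 7.4. Aliquots taken from 0 to 60 min were quenched in acetonitrile containing carbutamide internal standard, centrifuged, and analyzed by LC-MS/MS MRM; first-order half-lives came from loss of the parent ester.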

[8] = Stability/conversion of esters in rat liver S9; type: in vitro ADME; conditions: liver S9, pH 7.4, read-out: T1/2 Rat Liver S9
In short: as §4

[9] = Stability/conversion of esters in human intestinal S9; type: in vitro ADME; conditions: intestinal S9 (without PMSF), pH 7.4, read-out: T1/2 Human Intestinal S9
In short: as §4

[10] = Stability in pH 7.4 buffer (no enzyme); type: physicochemical; conditions: HEPES buffer without enzyme, read-out: T1/2 pH 7.4 Buffer
In short: as §4

[11] = tested on: E. coli ARC2687 (AmpC, CTX-M-14); assay: Mouse neutropenic thigh infection model, oral efficacy of cefpodoxime proxetil with Example 35; type: in vivo
Procedure: The oral in vivo efficacy of Example 35 was evaluated in combination with cefpodoxime proxetil in a mouse neutropenic thigh infection model versus a relevant clinical isolate. […] CD-1 mice (Charles River, Wilmington US) were housed in shoebox type cages with contact bedding and acclimated to the facility for a minimum of 2 days prior to use. The animal room was maintained at 70° F., with 50+/−10% relative humidity and a 12-hour light/dark cycle. The study was conducted using an IACUC-approved protocol in accordance with Title 9 of the Code of Federal Regulations. Animals were rendered neutropenic with two intraperitoneal doses of cyclophosphamide (150 mg/kg—4 days and 100 mg/kg—1 day prior to infection (Gerber et al. (1983) J Infect Dis 147(5); 910-917)). Animals were infected via an intramuscular challenge of ˜1×10^6 CFU administered within 100 μL of 0.9% saline. The inoculum was prepared from a 25 mL overnight culture of E. coli ARC 2687 in tryptic soy broth media. Following an OD600 determination, the inoculum was diluted in 0.9% saline to a concentration of […] prior to inoculation into the left and right thigh. Oral therapy with cefpodoxime proxetil alone and in combination with Example 35 was initiated 2 hours post bacterial challenge. Doses were suspended in 0.5% HPMC/0.1% Tween 80 and administered by oral gavage at a dose volume of 10 mL/kg. A terminal endpoint was obtained at 24 hr to determine bacterial counts in thigh tissue (CFU/gm). Animals were ethically euthanized, thighs were asceptically removed, weighed and homogenized in 1 mL of saline. Bacterial burden enumeration of tissue homogenate was performed by serial dilution on tryptic soy agar plates which were incubated overnight at 37° C. prior to colony (CFU) counting. The lower limit of detection was ˜2.6 log10 CFU/gm of tissue.

[12] = BLI at fixed 4 μg/ml, K. pneumoniae ATCC 700603
[13] = K. pneumoniae SHV-18, OXA-2, OKP-6 (ATCC 700603)

Structure (SMILES): CC1=C[C@@H](C(N)=O)N2C[C@@H]1N(OCC(=O)O)C2=O [Example 93, 2-(((2S,5R)-2-carbamoyl-4-methyl-7-oxo-1,6-diazabicyclo[3.2.1]oct-3-en-6-yl)oxy)acetic acid lithium salt]
MIC of cefixime in presence of BLI ([2]; BLI at fixed 4 μg/ml): ≤0.06 µg/mL
MIC of faropenem in presence of BLI ([2]; BLI at fixed 4 μg/ml): ≤0.06 µg/mL
MIC of tebipenem in presence of BLI ([2]; BLI at fixed 4 μg/ml): ≤0.06 µg/mL
MIC of cefixime in presence of BLI (E. coli WT (ATCC 25922); BLI at fixed 4 μg/ml): ≤0.06 µg/mL
MIC of faropenem in presence of BLI (E. coli WT (ATCC 25922); BLI at fixed 4 μg/ml): ≤0.06 µg/mL
MIC of tebipenem in presence of BLI (E. coli WT (ATCC 25922); BLI at fixed 4 μg/ml): ≤0.06 µg/mL
MIC of cefpodoxime in presence of BLI ([3]; BLI at fixed 4 μg/mL, K. pneumoniae SHV-18, OXA-2, OKP-6 (ATCC 700603), lithium salt): 0.125 µg/mL
MIC of cefixime in presence of BLI [3, 12]: 0.125 µg/mL
MIC of faropenem in presence of BLI [3, 12]: 1 µg/mL
MIC of tebipenem in presence of BLI [3, 12]: ≤0.06 µg/mL
IC50 [4]: 53 nM
IC50 [5]: 150 nM

Structure (SMILES): C[C@@H](O)[C@H]1C(=O)N2C(C(=O)O)=C(SC3CN(C4=NCCS4)C3)[C@H](C)[C@H]12 [Tebipenem, tebipenem, reference compound]
MIC [2]: 0.125 µg/mL
MIC (E. coli WT (ATCC 25922)): ≤ 0.06 µg/mL
MIC [3, 13]: 0.125 µg/mL

Structure (SMILES): C[C@@H](O)[C@H]1C(=O)N2C(C(=O)O)=C([C@H]3CCCO3)S[C@H]12 [Faropenem, faropenem, reference compound]
MIC [2]: 8 µg/mL
MIC (E. coli WT (ATCC 25922)): 0.5 µg/mL
MIC [3, 13]: 8 µg/mL

Structure (SMILES): COCC1=C(C(=O)OC(C)OC(=O)OC(C)C)N2C(=O)[C@@H](NC(=O)/C(=N\OC)c3csc(N)n3)[C@H]2SC1 (stereo partly shown) [Cefpodoxime proxetil, cefpodoxime proxetil, reference compound]
log10CFU/gm thigh ([11]; cefpodoxime proxetil alone 50 mg/kg PO/q6h, mouse neutropenic thigh, E. coli ARC2687): 10.24 log10CFU/gm thigh
CFU Change from 26 hr ([11]; cefpodoxime proxetil alone 50 mg/kg PO/q6h, relative to 26 hr growth control): −0.62 log10 CFU/gm
CFU Change from 2 hr ([11]; cefpodoxime proxetil alone 50 mg/kg PO/q6h, relative to initiation of therapy): +3.97 log10 CFU/gm
growth of bacterial burden in thighs after 24 hours of therapy ([11]; cefpodoxime proxetil alone at 50 mg/kg q6h, oral, neutropenic CD-1 mice): greater than 3 log10 CFU/gm

Structure (SMILES): C=CC1=C(C(=O)O)N2C(=O)[C@@H](NC(=O)/C(=N\OCC(=O)O)c3csc(N)n3)[C@H]2SC1 [Cefixime, cefixime, reference compound]
MIC of beta-lactam alone [2]: >64 µg/mL
MIC of beta-lactam alone (E. coli WT (ATCC 25922)): 0.5 µg/mL
MIC of beta-lactam alone [3, 13]: 8 µg/mL

Structure (SMILES): CO/N=C(\C(=O)N[C@@H]1C(=O)N2C(C(=O)O)=C(COC(N)=O)CS[C@H]12)c1ccco1 [Cefuroxime, cefuroxime, reference compound]
MIC of beta-lactam alone [2]: >64 µg/mL
MIC of beta-lactam alone (E. coli WT (ATCC 25922)): 4 µg/mL
MIC of beta-lactam alone [3, 13]: 32 µg/mL

Further lines, with some results ahead:

AUC [1]: 0.44 µM·h
Structure (SMILES): CC1=C[C@@H]2CN(C(=O)N2OS(=O)(=O)O)[C@@H]1C(N)=O [ETX2514, reference compound]

AUC [1]: 0.45 µM·h
Structure (SMILES): N#CC1CC[C@@H]2CN1C(=O)N2OS(=O)(=O)O (stereo partly shown) [WCK 4234, reference compound]

half-life at 10 μM [6]: 3.88 h
half-life at 10 μM [7]: 0.267 h
half-life at 10 μM [8]: 0.233 h
half-life at 10 μM [9]: 2.2 h
half-life at 10 μM [10]: 3.93 h
Structure (SMILES): CC1=C[C@@H]2CN(C(=O)N2O[C@H](F)C(=O)OC(C)C)[C@@H]1C(N)=O [Example 12, propan-2-yl (2R)-{[(2S,5R)-2-carbamoyl-3-methyl-7-oxo-1,6-diazabicyclo[3.2.1]oct-3-en-6-yl]oxy}(fluoro)ethanoate]
Circulating concentrations of the ester in plasma ([1]; rat plasma, LC/MS/MS): Rapid hydrolysis precluded satisfactory analysis of circulating concentrations

AUC [1]: 0.29 µM·h
Structure (SMILES): O=C(NC1CCNCC1)[C@@H]1CC[C@@H]2CN1C(=O)N2OS(=O)(=O)O [Relebactam, reference compound]
